Assay results published in patent publication US11103523B2, “Self-assembled brush block copolymer-nanoparticles for drug delivery” (UNIVERSITY OF CONNECTICUT, priority 2013, dated 2021).

Assays:
[1] = Tissue distribution of DOX in A549 tumor-bearing SCID mice; type: in vivo; conditions: 24 h after i.v. 2.5 mg/kg equivalent DOX
Description: For the tissue distribution study, tumor-bearing severe combined immunodeficient (SCID) between 6 and 8 weeks-old mice were inoculated with 0.1 mL PBS containing 2×10^6 human lung cancer cells (A549) into the right flank. […] Twenty four hours after injection, mice were sacrificed for blood and organ collection including tumor, liver, spleen, kidney, lung, and heart. Tissues were then weighed and homogenized in the lysis buffer (0.1 M Tris-HCl, 2 mM EDTA, 0.1% Triton X-100) using a probe sonicator (Qsonica LLC, CT). The lysate of each tissue was centrifuged at 14,000 rpm for 20 min at 4° C. The blood was centrifuged at 3000 rpm for 10 min at 4° C.

HeLa cells [2] = experiment: Intracellular uptake in HeLa cells (confocal microscopy and flow cytometry); type: cell-based, human; conditions: 25 μg/mL DOX equivalents
Description: To observe the cellular uptake, HeLa cells were seeded at a density of 1.0×10^5 cells/well in an 8-well chamber of a Lab-Tek II chamber slide and pre-incubated for 24 h at 37° C. and 5% CO2. Serum-free DMEM containing free DOX and DOX-NPs at equivalent doses (25 μg/mL) was added to each well, followed by incubation for 2 h at 37° C. The cells were then rinsed with PBS, stained with 10 μM Draq5 and fixed with 4% formaldehyde solution for 10 min. Cover glasses were then placed on glass slides. The cellular uptake of free DOX and DOX-NPs was imaged by confocal laser scanning microscopy (Leica, England) at an excitation wavelength of 488 nm for DOX and 633 nm for Draq5.
To quantify cellular uptake, HeLa cells (5×10^5 cells/well) in 0.5 mL were grown on a 24-well plate at 37° C. in a humidified atmosphere of 5% CO2 for 24 h. Serum-free DMEM containing free DOX and DOX-NPs at equivalent doses (25 μg/mL) was added to the cells which were subsequently incubated for 2 h. The cells were then washed three times with PBS, harvested by trypsinization and transferred into Fluorescence Activated Cell Sorter (FACS) tubes. All samples were analyzed by flow cytometry (FACSCalibur, BD Biosciences, San Jose, Calif.) to determine cellular internalization. Fluorescence measurements of intracellular DOX were performed in the FL2 channel.

A549 cells = experiment: Antitumor activity and systemic toxicity in SCID mice bearing subcutaneous A549 tumors; type: in vivo
Description: The antitumor efficacy of DOX and DOX-NPs was evaluated in SCID mice inoculated subcutaneously in the right flank with 0.1 mL PBS containing 2×10^6 A549 cells. When the tumors grew to approximately 20-30 mm^3 (9 days after tumor implantation), the mice were randomly divided into three groups (n=5-6), and this day was designated as day 0. The mice were injected intravenously twice a week via tail vein with saline (control), free DOX and DOX-NPs (100 μL) at 2.5 mg/kg of equivalent DOX. Antitumor activity was evaluated in terms of tumor volume which was calculated using the following equation: Tumor volume (mm^3)=width^2×length/2. The body weight was measured simultaneously as an indicator of the systemic toxicity.

HeLa cells [3] = experiment: Cytotoxicity in HeLa cells, MTT; conditions: all DOX concentrations (1-50 μg/mL), 24 h
Description: HeLa cells (7500 cells/well) were seeded on 96-well plates and cultured in 200 μL of DMEM supplemented with 10% FBS, 1% antibiotics, and 1% L-glutamine for 24 h at 37° C. and 5% CO2. After incubation, various concentrations of the blank nanoparticles (0.2-1 mg/mL), DOX-NPs, and free DOX (1-50 μg/mL of DOX equivalents) dissolved in DMEM without supplements were added. After 24 h of incubation with free DOX and DOX-NPs, and 48 h with blank nanoparticles, cytotoxicity was determined using 3-[4,5-dimethylthiazol-2-yl]-3,5-diphenyltetrazolium bromide dye (MTT dye, final concentration of 0.5 mg/mL) uptake at 540 nm on a microplate reader (Tecan group Ltd., Mannedorf, Switzerland).

[4] = 2.5 mg/kg equivalent DOX, tumor-bearing SCID mice

## COc1cccc2c1C(=O)c1c(O)c3c(c(O)c1C2=O)C[C@@](O)(C(=O)CO)C[C@@H]3O[C@H]1C[C@H](N)[C@H](O)[C@H](C)O1 [free DOX, doxorubicin]
[1]
  tissue with greatest / lowest concentration of DOX: greatest in the liver and lowest in the tumor
HeLa cells [2]; 2 h
  mean fluorescence intensity (flow cytometry): greater fluorescence intensity than those treated with DOX-NPs
HeLa cells [2]; 2 h of incubation
  intracellular distribution of DOX fluorescence (CLSM): strong red color in the nuclei
A549 cells; 2.5 mg/kg equivalent DOX i.v. twice a week
  effect on tumor growth: tumor growth was inhibited
A549 cells; [4]
  decrease in body weight: 28.1±1.2%
  survival: death of all mice within 11 days
HeLa cells [3]
  cytotoxicity comparison: significantly higher cytotoxicity than DOX-NPs
